# Tested on: DLBCL xenograft
# Assay: combination drug testing in a DLBCL xenograft
# Assay type: in vivo
# Details: initial experiment in a DLBCL xenograft
row,Structure (SMILES),interaction with PCI-32765 in combination
1,CC(C)C[C@H](NC(=O)[C@H](Cc1ccccc1)NC(=O)c1cnccn1)B(O)O [bortezomib],greater than additivity

# Tested on: cell lines
# Assay: combination of PCI-32765 with other drugs in cell lines
# Assay type: cell-based
# Details: not given
row,Structure (SMILES),interaction with PCI-32765 in combination
1,CN(C)Cc1c(C(=O)NCCOc2ccc(C(=O)NO)cc2)oc2ccccc12 [3-((dimethylamino)methyl)-N-(2-(4-(hydroxycarbamoyl)phenoxy)ethyl)benzofuran-2-carboxamide],weak synergy
2,CNC(=O)c1cc(Oc2ccc(NC(=O)Nc3ccc(Cl)c(C(F)(F)F)c3)cc2)ccn1 [sorafenib],weak synergy
3,N.N.O=C([O-])C1(C(=O)[O-])CCC1.[Pt+2] [carboplatin],additivity
4,CC(=O)O[C@H]1C(=O)[C@@]2(C)[C@H]([C@H](OC(=O)c3ccccc3)[C@]3(O)C[C@H](OC(=O)[C@H](O)[C@@H](NC(=O)c4ccccc4)c4ccccc4)C(C)=C1C3(C)C)[C@]1(OC(C)=O)CO[C@@H]1C[C@@H]2O [taxol],additivity
5,Nc1ccn([C@@H]2O[C@H](CO)[C@@H](O)C2(F)F)c(=O)n1 [gemcitabine],weak synergy
6,Nc1cccc2c1CN(C1CCC(=O)NC1=O)C2=O (stereo not shown) [lenalidomide],weak synergy
7,CC[C@]1(O)C[C@H]2CN(CCc3c([nH]c4ccccc34)[C@@](C(=O)OC)(c3cc4c(cc3OC)N(C=O)[C@H]3[C@@](O)(C(=O)OC)[C@H](OC(C)=O)[C@]5(CC)C=CCN6CC[C@]43[C@@H]65)C2)C1 [vincristine],additivity
8,COc1cc(Nc2ncc(F)c(Nc3ccc4c(n3)NC(=O)C(C)(C)O4)n2)cc(OC)c1OC [Compound R-406],weak synergy
9,COc1cccc2c1C(=O)c1c(O)c3c(c(O)c1C2=O)C[C@@](O)(C(=O)CO)C[C@@H]3O[C@H]1C[C@H](N)[C@H](O)[C@H](C)O1 [doxorubicin],additivity
10,CO[C@H]1C[C@@H]2CC[C@@H](C)[C@@](O)(O2)C(=O)C(=O)N2CCCC[C@H]2C(=O)O[C@H]([C@H](C)C[C@@H]2CC[C@@H](OC(=O)C(C)(CO)CO)[C@H](OC)C2)CC(=O)[C@H](C)/C=C(\C)[C@@H](O)[C@@H](OC)C(=O)[C@H](C)C[C@H](C)/C=C/C=C/C=C/1C [temsirolimus],additivity
11,Cn1c(CCCC(=O)O)nc2cc(N(CCCl)CCCl)ccc21 [bendamustine],weak synergy
12,CC(C)C[C@H](NC(=O)[C@H](Cc1ccccc1)NC(=O)c1cnccn1)B(O)O [bortezomib],weak synergy
